Measurements taken from patent publication US10899709B2, “Novel-alkynyl-substituted 3-phenylpyrrolidine-2,4-diones and use thereof as herbicides” (BAYER CROPSCIENCE AKTIENGESELLSCHAFT, priority 2015, dated 2021).

Key:
Type in all cases: in vivo
[1] = test system: Alopecurus myosuroides; assay: Post-emergence herbicidal effect; conditions: visual assessment after about 3 weeks
Procedure: (§1) Seeds of monocotyledonous and dicotyledonous weed and crop plants are laid out in sandy loam in wood-fibre pots, covered with soil and cultivated in a greenhouse under good growth conditions. 2 to 3 weeks after sowing, the test plants are treated at the one-leaf stage. The compounds according to the invention, formulated in the form of wettable powders (WP) or as emulsion concentrates (EC), are then sprayed as aqueous suspension or emulsion at a water application rate of 600 to 800 l/ha (converted) with the addition of 0.2% of wetting agent onto the green parts of the plants. After the test plants have been left to stand in the greenhouse under optimal growth conditions for about 3 weeks, the action of the preparations is assessed visually in comparison to untreated controls (herbicidal action in percent (%): 100% activity=the plants have died, 0% activity=like control plants).

[2] = test system: Setaria viridis; assay: Post-emergence herbicidal effect; conditions: visual assessment after about 3 weeks
Procedure: as §1

[3] = test system: Echinochloa crus-galli; assay: Post-emergence herbicidal effect; conditions: visual assessment after about 3 weeks
Procedure: as §1

[4] = test system: Lolium multiflorum; assay: Post-emergence herbicidal effect; conditions: visual assessment after about 3 weeks
Procedure: as §1

[5] = test system: Alopecurus myosuroides; assay: Pre-emergence herbicidal effect; conditions: visual score after 3 weeks
Source text: (§2) Seeds of monocotyledonous and dicotyledonous weed plants and crop plants are laid out in wood-fibre pots in sandy loam and covered with soil. The compounds according to the invention formulated in the form of wettable powders (WP) or as emulsion concentrates (EC) are then applied as aqueous suspension or emulsion at a water application rate of 600 to 800 l/ha (converted) with the addition of 0.2% wetting agent to the surface of the covering soil. After the treatment, the pots are placed in a greenhouse and kept under good growth conditions for the trial plants. The damage to the test plants is scored visually after a test period of 3 weeks by comparison with untreated controls (herbicidal activity in percent (%): 100% activity=the plants have died, 0% activity=like control plants).

[6] = test system: Setaria viridis; assay: Pre-emergence herbicidal effect; conditions: visual score after 3 weeks
Source text: as §2

[7] = test system: Echinochloa crus-galli; assay: Pre-emergence herbicidal effect; conditions: visual score after 3 weeks
Source text: as §2

[8] = test system: Lolium multiflorum; assay: Pre-emergence herbicidal effect; conditions: visual score after 3 weeks
Source text: as §2

[9] = test system: Avena fatua; assay: Pre-emergence herbicidal effect; conditions: visual score after 3 weeks
Source text: as §2

[10] = test system: Avena fatua; assay: Post-emergence herbicidal effect; conditions: visual assessment after about 3 weeks
Procedure: as §1

SMILES	Post-emergence effectiveness ALOMY ([1]; 80 g/ha) [%]	Post-emergence effectiveness SETVI ([2]; 20 g/ha) [%]	Post-emergence effectiveness SETVI ([2]; 80 g/ha) [%]	Post-emergence effectiveness ECHCG ([3]; 20 g/ha) [%]	Post-emergence effectiveness ECHCG ([3]; 80 g/ha) [%]	Post-emergence effectiveness LOLMU ([4]; 20 g/ha) [%]	Post-emergence effectiveness LOLMU ([4]; 80 g/ha) [%]	Pre-emergence effectiveness ALOMY ([5]; 320 g/ha) [%]	Pre-emergence effectiveness SETVI ([6]; 80 g/ha) [%]	Pre-emergence effectiveness SETVI ([6]; 320 g/ha) [%]	Pre-emergence effectiveness ECHCG ([7]; 80 g/ha) [%]	Pre-emergence effectiveness ECHCG ([7]; 320 g/ha) [%]	Pre-emergence effectiveness LOLMU ([8]; 320 g/ha) [%]	Pre-emergence effectiveness AVEFA ([9]; 320 g/ha) [%]	Post-emergence effectiveness AVEFA ([10]; 80 g/ha) [%]	Pre-emergence effectiveness ALOMY ([5]; 80 g/ha) [%]	Pre-emergence effectiveness LOLMU ([8]; 80 g/ha) [%]	Pre-emergence effectiveness AVEFA ([9]; 80 g/ha) [%]	Post-emergence effectiveness ALOMY ([1]; 20 g/ha) [%]	Post-emergence effectiveness AVEFA ([10]; 20 g/ha) [%]
COCC1CCC2(C1)NC(=O)C(c1c(C)cc(C#CC3CC3)cc1C)=C2O (mixture of isomers) [Example I-14]	80	90	90	90	100	90	90	100	90	90	100	100	100	80	–	–	–	–	–	–
CC#Cc1cc(CC)c(C2=C(O)C3(CCC(CCOC)CC3)NC2=O)c(CC)c1 (centres unmarked) [Example I-1]	90	90	100	100	100	90	90	100	100	100	100	100	100	80	90	80	100	–	–	–
COCC1CCC2(C1)NC(=O)C(c1c(C)cc(C#CC3CC3)cc1C)=C2O (centres unmarked) [Example I-13]	80	90	90	90	90	–	90	100	90	100	100	100	90	–	–	–	–	–	–	–
CC#Cc1cc(C)c(C2=C(OC(=O)C(C)C)C3(CCC(COC)C3)NC2=O)c(CC)c1 (centres unmarked) [Example Ia-6]	100	–	100	100	100	90	90	100	100	100	100	100	100	90	–	100	100	90	–	–
CC#Cc1cc(C)c(C2=C(OC(=O)C(C)C)C3(CCC(COC)C3)NC2=O)c(CC)c1 (centres unmarked) [Example Ia-7]	100	–	80	90	100	–	100	–	100	–	100	–	–	–	–	100	100	–	–	–
CC#Cc1cc(C)c(C2=C(OC(=O)C(C)C)C3(CCC(COC)C3)NC2=O)c(CC)c1 (centres unmarked) [Example Ia-9]	100	100	100	100	100	90	90	–	–	–	–	–	–	–	90	–	–	–	100	90
CCc1cc(C#CC2CC2)cc(C)c1C1=C(OC(=O)C(C)C)C2(CCC(COC)C2)NC1=O (centres unmarked) [Example Ia-11]	90	80	90	100	100	–	90	100	100	100	100	100	100	80	–	100	100	–	–	–
CC#Cc1cc(CC)c(C2=C(OC(=O)C(C)C)C3(CCC(OCCOC)CC3)NC2=O)c(CC)c1 (centres unmarked) [Example Ia-13]	–	–	80	80	100	–	–	100	100	100	100	100	100	100	–	100	100	80	–	–
CC#Cc1cc(C)c(C2=C(OS(C)(=O)=O)C3(CCC(COC)C3)NC2=O)c(CC)c1 (centres unmarked) [Example Ia-16]	–	–	–	–	–	–	–	90	90	90	90	100	90	–	–	90	–	–	–	–
